Assay results published in patent publication US20110071180A1, “SUB-TYPE SELECTIVE AMIDES OF DIAZABICYCLOALKANES” (Targacept, Inc., priority 2008, published 2011).

Columns and labels:
[1] = target: T1, α7 nAChR subtype (Rattus norvegicus, UniProt Q05941); test: Radioligand binding, [3H]MLA, rat hippocampus membranes; settings: read-out: α7 high through-put screening (HTS) result
T1 construct: The hippocampus was removed and placed in 10 volumes (weight:volume) of ice-cold preparative buffer; from tissue; host or cells: rat hippocampus membranes (female Sprague-Dawley)
T1 sequence (Q05941 23-502): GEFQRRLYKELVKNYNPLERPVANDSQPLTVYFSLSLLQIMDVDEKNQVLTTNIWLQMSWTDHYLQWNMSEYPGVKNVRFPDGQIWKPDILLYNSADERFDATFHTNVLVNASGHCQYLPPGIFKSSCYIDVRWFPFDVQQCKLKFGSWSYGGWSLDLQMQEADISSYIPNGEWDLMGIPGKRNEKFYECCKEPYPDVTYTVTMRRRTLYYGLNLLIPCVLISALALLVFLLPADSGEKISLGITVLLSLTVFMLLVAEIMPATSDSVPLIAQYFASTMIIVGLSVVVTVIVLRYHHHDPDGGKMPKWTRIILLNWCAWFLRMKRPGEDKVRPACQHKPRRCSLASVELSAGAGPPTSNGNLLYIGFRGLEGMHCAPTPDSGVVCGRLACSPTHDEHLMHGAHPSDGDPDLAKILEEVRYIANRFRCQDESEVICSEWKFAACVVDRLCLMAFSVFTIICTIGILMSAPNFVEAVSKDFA

[2] = target: T2, human α4β2 nAChR subtype (Homo sapiens, UniProt P17787+P43681); test: Radioligand binding, [3H]nicotine, membranes from SH-EP1/human α4β2 clonal cells; settings: [3H]nicotine 5 nM, SH-EP1/human α4β2 cell membranes
T2 construct: expressed in transfected cells; host or cells: SH-EP1 clonal cells expressing human α4β2
T2 sequence (P43681 29-627 limits assumed): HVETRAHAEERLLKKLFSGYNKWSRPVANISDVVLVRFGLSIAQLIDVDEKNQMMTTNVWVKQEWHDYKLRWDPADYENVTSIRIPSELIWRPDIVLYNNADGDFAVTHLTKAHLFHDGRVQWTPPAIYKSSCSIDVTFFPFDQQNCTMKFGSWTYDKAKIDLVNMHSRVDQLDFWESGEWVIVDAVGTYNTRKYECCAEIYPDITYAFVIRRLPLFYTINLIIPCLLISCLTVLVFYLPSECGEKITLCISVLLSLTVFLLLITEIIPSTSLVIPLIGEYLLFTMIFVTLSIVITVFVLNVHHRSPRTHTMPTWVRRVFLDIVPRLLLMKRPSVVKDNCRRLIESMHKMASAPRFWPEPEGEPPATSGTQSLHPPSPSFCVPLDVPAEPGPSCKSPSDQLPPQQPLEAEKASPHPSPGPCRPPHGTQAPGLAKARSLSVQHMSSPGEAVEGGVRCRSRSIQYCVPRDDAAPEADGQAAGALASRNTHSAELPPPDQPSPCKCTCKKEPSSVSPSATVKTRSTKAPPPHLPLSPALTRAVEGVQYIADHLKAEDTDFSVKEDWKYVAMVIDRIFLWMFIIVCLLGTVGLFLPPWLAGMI
T2 sequence (P17787 26-502): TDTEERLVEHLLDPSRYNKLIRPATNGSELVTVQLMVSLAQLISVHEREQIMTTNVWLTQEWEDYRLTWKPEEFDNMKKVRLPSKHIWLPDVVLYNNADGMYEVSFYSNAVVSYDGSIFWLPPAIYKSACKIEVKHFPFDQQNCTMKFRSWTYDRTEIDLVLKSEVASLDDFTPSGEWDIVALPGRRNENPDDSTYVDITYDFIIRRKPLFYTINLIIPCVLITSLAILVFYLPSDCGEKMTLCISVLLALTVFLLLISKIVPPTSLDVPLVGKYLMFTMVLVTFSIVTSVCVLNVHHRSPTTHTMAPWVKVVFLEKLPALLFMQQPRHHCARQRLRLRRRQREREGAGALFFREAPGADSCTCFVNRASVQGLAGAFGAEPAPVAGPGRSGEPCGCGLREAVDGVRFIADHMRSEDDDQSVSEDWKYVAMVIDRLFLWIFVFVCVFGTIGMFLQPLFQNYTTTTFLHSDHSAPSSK

[3] = target: T3, rat α4β2 nAChR subtype (Rattus norvegicus, UniProt P09483+P12390); test: Radioligand binding, [3H]nicotine, rat cortex membranes; settings: 5 μM compound, 5 nM 3H-nicotine; Ki not determined
T3 construct: The cerebral cortex was removed and placed in 20 volumes (weight:volume) of ice-cold preparative buffer; from tissue; host or cells: rat cerebral cortex membranes (female Sprague-Dawley)
T3 sequence (P09483 31-630): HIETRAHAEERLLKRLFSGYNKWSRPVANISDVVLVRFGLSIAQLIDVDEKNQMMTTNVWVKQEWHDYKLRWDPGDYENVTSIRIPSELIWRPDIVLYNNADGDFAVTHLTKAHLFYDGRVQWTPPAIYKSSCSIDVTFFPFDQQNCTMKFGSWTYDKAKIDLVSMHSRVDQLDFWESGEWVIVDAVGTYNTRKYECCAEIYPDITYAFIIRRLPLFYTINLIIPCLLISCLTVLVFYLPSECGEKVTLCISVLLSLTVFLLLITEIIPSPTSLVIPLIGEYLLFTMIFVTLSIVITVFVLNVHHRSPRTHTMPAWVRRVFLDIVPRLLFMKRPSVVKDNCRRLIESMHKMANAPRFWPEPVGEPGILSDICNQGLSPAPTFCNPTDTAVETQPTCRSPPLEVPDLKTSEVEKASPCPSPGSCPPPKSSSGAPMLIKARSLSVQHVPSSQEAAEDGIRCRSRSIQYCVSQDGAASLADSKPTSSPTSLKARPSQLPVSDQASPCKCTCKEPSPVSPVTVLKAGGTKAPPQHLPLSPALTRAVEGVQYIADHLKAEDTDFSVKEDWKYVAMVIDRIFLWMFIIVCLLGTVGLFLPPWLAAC
T3 sequence (P12390 25-500): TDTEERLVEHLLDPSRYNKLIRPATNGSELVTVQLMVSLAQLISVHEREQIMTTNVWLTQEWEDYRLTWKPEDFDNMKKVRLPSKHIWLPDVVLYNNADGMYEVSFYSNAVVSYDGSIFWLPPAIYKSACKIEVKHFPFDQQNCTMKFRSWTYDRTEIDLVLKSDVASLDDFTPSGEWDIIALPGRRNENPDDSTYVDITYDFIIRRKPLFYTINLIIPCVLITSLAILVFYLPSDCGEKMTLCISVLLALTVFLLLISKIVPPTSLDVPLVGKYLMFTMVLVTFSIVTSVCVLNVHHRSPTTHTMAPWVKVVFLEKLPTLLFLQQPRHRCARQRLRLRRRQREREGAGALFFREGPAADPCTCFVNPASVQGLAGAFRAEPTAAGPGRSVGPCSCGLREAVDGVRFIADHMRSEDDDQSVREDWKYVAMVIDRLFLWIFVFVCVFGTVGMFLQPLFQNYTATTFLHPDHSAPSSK

[4] = system: rats; test: Novel object recognition (NOR) task; format: in vivo, rat; settings: oral, 0.3 mg/kg
Experimental: FIG. 1 is a chart showing the results of a study on object recognition in rats treated orally with N-(propanoyl)-3,7-diazabicyclo[3.3.0]octane. The results are shown as a function of recognition index (%) versus dose (mg/kg). N-(Propanoyl)-3,7-diazabicyclo[3.3.0]octane is active orally in rats at 0.3 mg/kg in novel object recognition (NOR) task.
The novel object recognition (NOR) task was performed in accord with the description of Ennaceur and Delacour Behav. Brain Res. 100: 85-92 (1988).
Certain exemplified compounds were assessed in the NOR task. Thus, N-(propanoyl)-3,7-diazabicyclo[3.3.0]octane (Compound 10-16, Table 1) was active in NOR in rats, at […]. This provides evidence of the efficacy (and potency) of the compounds of the present invention in treating cognitive deficits, attentional disorders and dementias, and the potential of these compounds for human therapy.

Compound	inhibition at 5 µM [1] [%]	Ki [2] [nM]	Rat α4β2 high through-put screening (HTS) result [3]	activity in novel object recognition (NOR) task (recognition index) [4]
O=C(C1C2CCCCC21)N1CC2CNCC(C2)C1 (stereo not shown) [Example 10-97]	< 50	64.1	ND; failed HTS (the compound failed to inhibit, at 5 μM concentration, the binding of 5 nM ^3H-nicotine by at least 50%)	
CCC(=O)N1CC2CNCC2C1 (stereo not shown) [Example 10-16, N-(propanoyl)-3,7-diazabicyclo[3.3.0]octane]				active
